Experiment [1] deals with Axin2 in SW480 cells. Put plainly: cells. The class given is cell-based. Particulars: Homo sapiens, read-out: Axin2 384 IF EC50 IP. Summed up: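 SW480 cells treated 24 h at 37° C (0.5% DMSO final), fixed/permeabilized, immunostained for Axin2. ArrayScan imaging quantified ring-spot intensity; Axin2 accumulation expressed as percent of control, EC50 from concentration-response.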

In experiment [2] the test system is total β-catenin in SW480 colorectal cells. Put plainly: cells. It is filed as cell-based. Particulars: Homo sapiens. Summed up:
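SW480 cells in growth medium (MEM alpha, 10% heat-inactivated FBS, 10 mM HEPES) treated with a 10-point, 3-fold dilution series of TNKS inhibitor for 40–48 h at 37 °C. Lysates run on an MSD sandwich immunoassay for total β-catenin, read by electrochemiluminescence.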

The target of experiment [3] is 6×HIS-tankyrase 2 (946-1162) (Homo sapiens (Human), UniProt Q9H2K2). Put plainly: Tankyrase 2 biochemical assay (AlphaLisa, anti-PAR detection). As to conditions: 4 nM enzyme, 250 nM NAD; read-out: TNKS2 IP IC50.
Chain of 6×HIS-tankyrase 2 (946-1162) (Q9H2K2 946-1162): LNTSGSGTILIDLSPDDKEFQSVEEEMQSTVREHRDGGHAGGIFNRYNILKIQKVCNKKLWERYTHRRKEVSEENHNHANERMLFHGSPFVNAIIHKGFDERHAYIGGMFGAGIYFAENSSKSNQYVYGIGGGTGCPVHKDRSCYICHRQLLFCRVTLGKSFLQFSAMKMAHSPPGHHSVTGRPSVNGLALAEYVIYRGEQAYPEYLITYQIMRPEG
In experiment [4] the target is 6×HIS-tankyrase 1 (1091-1325) (Homo sapiens (Human), UniProt O95271). Put plainly: biochemical. It is filed as biochemical. Particulars: […] enzyme, 400 nM NAD, 60 minutes at room temperature; read-out: TNKS1 IP IC50.
Chain of 6×HIS-tankyrase 1 (1091-1325) (O95271 1091-1325): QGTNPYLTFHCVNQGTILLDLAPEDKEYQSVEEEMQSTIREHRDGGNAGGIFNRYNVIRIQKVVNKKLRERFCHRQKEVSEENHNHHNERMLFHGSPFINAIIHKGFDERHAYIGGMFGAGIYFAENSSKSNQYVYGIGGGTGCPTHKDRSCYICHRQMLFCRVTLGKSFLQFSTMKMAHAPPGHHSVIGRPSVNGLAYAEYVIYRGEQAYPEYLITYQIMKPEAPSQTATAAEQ
The test system of experiment [5] is 8×TCF promoter-driven Firefly luciferase (Wnt reporter) in HEK-293 cells. Put plainly: 2H9-STF assay, Wnt ligand activated HEK-293 assay in WT APC cellular context. It is filed as cell-based. Particulars: Homo sapiens. How it is done:
HEK-293 cells engineered with an 8×TCF promoter-driven Firefly (FF) luciferase gene (Wnt reporter) along with an SV40 promoter-driven Renilla (RN) luciferase gene (control reporter) were used to measure the potency of tankyrase compounds in the context of Wnt ligand activation in a wild-type (non-APC mutated) cellular background. The engineered HEK-293 cells were plated (25 μL) at a density of 40,000 cells/well in black, clear-bottom, 96-well View plates (PerkinElmer) in normal growth medium (DMEM with 10% FBS with no antibiotics). Tankyrase inhibitors (5 μL) were transferred to cells from a three-fold serially diluted compound plate. A 10-point dilution series was tested starting at a concentration (10 μM final concentration in assay). Column 6 contained only DMSO and served as the “HI” control. Cells and compounds were incubated together for 1 hour at 37° C. after which the Wnt3a ligand (pathway inducer) was added to all wells except column 12 which served as the “LO” control. Twenty microliters of diluted recombinant mouse Wnt3a (R & D Systems) was added to the cells for a final concentration of 200 ng/mL (5 nM which is the Wnt3a˜EC80) and the plates were incubated at 37° C. for 18 to 24 hours. The Dual-Glo Reagents (Promega) were added as directed by manufacturer to assay the FF and RN luciferase activity. Luciferase activity was measures using the EnVision multilabel plate reader (PerkinElmer).

In experiment [6] the test system is 8×TCF promoter-driven Firefly luciferase (Wnt reporter) in DLD-1 colorectal cells. Put plainly: DLD-1-STF assay, constitutively activated Wnt pathway in mutant APC cancer cell context. The class given is cell-based. Particulars: Homo sapiens. The method, then: DLD-1-STF Assay. Constitutively Activated Wnt Pathway Assay in Mutant APC Cancer Cell Context
DLD-1 colorectal cells engineered with an 8×TCF promoter-driven Firefly (FF) luciferase gene (Wnt reporter) along with an EF1a promoter-driven Renilla (RN) luciferase gene (control reporter) were used to measure the potency of tankyrase compounds in the context of the constitutively activated Wnt pathway due to mutated APC in colorectal cancer cells. The engineered DLD-1 cells were plated (45 μL) at a density of 10,000 cells/well in black, clear-bottom, 96-well View plates (PerkinElmer) in normal growth medium (RPMI with 10% FBS with no antibiotics). Tankyrase inhibitors (5 μL) were transferred to cells from a three-fold serially diluted compound plate. A 10-point dilution series was tested starting at a concentration (10 μM final concentration in assay). Column 6 contained only DMSO and served as the “HI” control. […] The plates were incubated at 37° C. for 40 to 48 hours. The Dual-Glo Reagents (Promega) were added as directed by manufacturer to assay the FF and RN luciferase activity. Luciferase activity was measures using the EnVision multilabel plate reader (PerkinElmer).

The subject of experiment [7] is SW480 cells. Put plainly: Colony formation assay. The class given is cell-based. As to conditions: Homo sapiens, read-out: SW480 Colony Inhibition IC50. How it is done:
Colorectal cell lines grown under normal logarithmic growth conditions in 10% FBS were trypsinized, counted in a Vi-CELL Cell Viability Analyzer and diluted to 400 cells/mL in RPMI media containing 0.5% FBS. Cells were plated in 12 well plates using 0.5 mL of diluted cells for a total of 200 cells/well. Tankyrase inhibitors were diluted in RPMI (0.5% FBS) at 2× final concentration. Ten concentrations of compound were prepared starting at 20 μM and serially diluted by 2 fold and 0.5 mL of diluted compound was added to each well. The final concentration range tested was thus 10 μM down to 20 nM. Two additional wells per plate were treated with the vehicle control (0.1% DMSO). The cells were grown for 12 days with the media and the compounds changed at day 6. Colonies were visualized by fixing and staining with Crystal Violet dye diluted in 1× fixation solution (2% formaldehyde, 0.2%, glutaraldehyde in 1×PBS) for 30 minutes at room temperature. The plates were washed extensively and air dried. Images of plates were captured and the colony counts were performed using the Bioreader® (Biosys) reader.

The mark [8] stands for this setting: HEK293, read-out: 2H9-Wnt3a-STF-FF/RL * 100 IC50.
[9] abbreviates: SW480, 24 h, SW480 cells, 24 hours.
Where [10] appears, read: SW480 cells, 40 to 48 hours, top concentration 10 μM, read-out: SW480-Total β-Catenin IC50 IP.
[11] abbreviates: DLD-1 reporter cells, 40 to 48 hours, read-out: DLD1-STF-FF/RL * 100 IC50.

Results on six molecules are retold here after US9340549B2, “Oxazolidinone compounds and derivatives thereof” (priority 2012, dated 2016).

pEC50, pIC50: −log10 of the molar value. Like-named read-outs stand apart in the source and are kept apart here.

As for `CC1(C)OC(=O)N(c2ccc(-c3cc(-c4ncccn4)c[nH]c3=O)cc2)[C@H]1c1ccccc1` [Example 4, (S)-5,5-Dimethyl-3-(4-(2-oxo-5-(pyrimidin-2-yl)-1,2-dihydropyridin-3-yl)phenyl)-4-phenyloxazolidin-2-one], in experiment [1] (SW480, 24 h), the pEC50 is 5.55. Moreover, the pIC50 in experiment [2] (SW480, read-out: SW480-Total β-Catenin IC50 IP) was 6.12; in experiment [3], 7.18; in experiment [4] it was 7.11; in experiment [5] (setting [8]), 6.54.
In the case of `CC1(C)OC(=O)N([C@H]2CC[C@H](n3c(=O)[nH]c4cnccc43)CC2)[C@H]1c1ccccc1` [Example 23, (S)-5,5-dimethyl-3-((1r,4S)-4-(2-oxo-2,3-dihydro-1H-imidazo[4,5-c]pyridin-1-yl)cyclohexyl)-4-phenyloxazolidin-2-one], the pEC50 in experiment [1] (setting [9]) is 6.64. Moreover, the pIC50 in experiment [2] (setting [10]) is 6.84; in experiment [6] (setting [11]) it was 7.36.
Consider `CC1(C)OC(=O)N([C@H]2CC[C@H](NC(=O)c3cccc4cccnc34)CC2)[C@H]1c1ccccc1` [Example 26, N-((1S,4r)-4-((S)-5,5-dimethyl-2-oxo-4-phenyloxazolidin-3-yl)cyclohexyl)quinoline-8-carboxamide], for which the pIC50 was 5.89 in experiment [7] (SW480, 288 h) and 7.26 in experiment [5] (setting [8]).
Turning to `CC1(C)OC(=O)N([C@H]2CC[C@H](n3c(=O)[nH]c4cc(C#N)ccc43)CC2)[C@H]1c1ccccc1` [Example 47, 1-((1S,4r)-4-((S)-5,5-dimethyl-2-oxo-4-phenyloxazolidin-3-yl)cyclohexyl)-2-oxo-2,3-dihydro-1H-benzo[d]imidazole-5-carbonitrile], the pEC50 in experiment [1] (SW480 cells, 24 hours) was 7.14. Further, the pIC50 in experiment [2] (setting [10]) is 7.27; in experiment [6] (DLD-1, read-out: DLD1-STF-FF/RL * 100 IC50), 7.92.
As for `CC1(C)OC(=O)N(c2ccc(-c3cnc(N)c(-c4ncc(F)cn4)c3)cc2)[C@H]1c1ccccc1` [Example 64, (S)-3-(4-(6-amino-5-(5-fluoropyrimidin-2-yl)pyridin-3-yl)phenyl)-5,5-dimethyl-4-phenyloxazolidin-2-one], the pEC50 in experiment [1] (setting [9]) was 5.49. The values for the pIC50 in experiment [2] (setting [10]), in experiment [3] and in experiment [4] were 6.53, 7.32 and 7.07, respectively.
`CC1(C)OC(=O)N(c2ccc(-c3cnc(N)c(-c4ncccn4)c3)cc2)[C@H]1c1ccccc1` [Example 65, (S)-3-(4-(6-amino-5-(pyrimidin-2-yl)pyridin-3-yl)phenyl)-5,5-dimethyl-4-phenyloxazolidin-2-one]: the pEC50 in experiment [1] (setting [9]) is 5.84. The pIC50 was 6.63 in experiment [2] (setting [10]); 7.59 in experiment [3]; 7.31 in experiment [4]; 5.89 in experiment [7] (288 h, SW480, 0.5% FBS, 12 days); 7.02 in experiment [5] (HEK293, HEK-293 reporter cells, 200 ng/mL mouse Wnt3a, 18 to 24 hours, read-out: 2H9-Wnt3a-STF-FF/RL * 100 IC50); 6.97 in experiment [6] (setting [11]).
